Molecular target: T1, human FPRL1 (Homo sapiens, UniProt P25090)
T1 construct: expressed in transfected cells; host or cells: HEK293 (JCRB9068, NIBIO), transient co-transfection with pCMV-script vectors
T1 sequence (P25090 1-351): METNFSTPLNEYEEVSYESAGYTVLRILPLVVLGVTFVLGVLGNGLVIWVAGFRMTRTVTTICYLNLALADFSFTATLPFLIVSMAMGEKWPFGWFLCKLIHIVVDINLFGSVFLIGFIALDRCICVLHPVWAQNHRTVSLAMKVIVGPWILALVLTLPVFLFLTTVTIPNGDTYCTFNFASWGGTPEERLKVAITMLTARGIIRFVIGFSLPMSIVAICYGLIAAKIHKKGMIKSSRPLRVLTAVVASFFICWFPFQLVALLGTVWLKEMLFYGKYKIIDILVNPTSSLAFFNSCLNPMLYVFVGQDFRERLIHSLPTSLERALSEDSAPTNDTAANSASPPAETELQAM
Experiment: Measurement test of agonist activity on human FPRL1 (calcium mobilization in HEK293 cells transfected with human FPRL1 and Gα15)
Assay type: cell-based
Conditions: Fluo-4 NW, molar concentration giving 50% maximum activation, read-out: Efficacy EC50
Text: Measurement test of agonist activity on human FPRL1
(1-1) Construction of Human FPRL1 Expression Vector
Human FPRL (SEQ ID NO: 3) was amplified in a PCR reaction from cDNA derived from a monocytic leukemia cell line THP-1 (TIB-202, ATCC) as a template using a forward primer shown in SEQ ID NO: 1, a reverse primer shown in SEQ ID NO: 2, and KOD-plus-ver. 2 (KOD-211, TOYOBO CO., LTD.). […] 2 (LGK-201, TOYOBO CO., LTD.). The ligation product was transformed into DH5α (DNA-901, TOYOBO CO., LTD.), cultured on a 100 μg/mL kanamycin-containing LB medium, and purified with HiSpeed Plasmid Maxi Kit (12662, QIAGEN).
(1-2) Construction of Human Gα15 Expression Vector
2. The amplified PCR product and pCMV-script vector were digested with Hind III and XhoI, and the resultant digest was ligated with Ligation high ver. 2. The ligation product was transformed into DH5α, cultured on a 100 μg/mL kanamycin-containing LB medium, and purified with HiSpeed Plasmid Maxi Kit.
(2-1) Method for Culturing and Subculturing HEK293
HEK293 (JCRB9068, NIBIO) was cultured in an incubator at 5% CO2 and 37° C. using DMEM (11885-092, GIBCO) containing 10% FBS and 1cPenicillin-Streptomycin (15140-122, GIBCO).
(2-2) Introduction of Human FPRL1 and Gal5 Expression Vectors
The cells were inoculated in a Collagen Type 1 coated 6-well plate (4810-010, IWAKI) to 5×10^5 cells/2.5 mL/well and cultured overnight. On the next day, human FPRL1 and Gα15 expression vectors were introduced using Lipofectamine 2000 transfection reagent (11668-019, Life technologies). First, the human FPRL1 and Gal5 expression vectors were diluted with Opti-MEM I Reduced Serum Medium (31985-070, GIBCO) to 2 μg/250 μL/well and Lipofectamine 2000 transfection reagent was diluted with Opti-MEM I Reduced Serum Medium to be 4 μL/250 μL/well. The vectors and reagent were softly diffused, and incubated at room temperature for 5 minutes. The vector solution was mixed with Lipofectamine 2000 transfection reagent in equal amounts. In order to form a complex of the vectors and Lipofectamine 2000 transfection reagent, the mixture was incubated at room temperature for 20 minutes, and added at 500 μL/well to the medium of inoculated cells. The treated cells were cultured for 24 hours, inoculated in Poly-D-Lysine coated 96-well plate (356640, BD Biosciences) at a cell density of 7×10^4 cells/100 μL/well, and cultured for another 24 hours. The resultant cells were used in a measurement test of calcium mobilization in the cells.
(3) Evaluation of Agonist Activity on Human FPRL1 (Test of Calcium Mobilization in Cell)
An appropriate amount of each test compound was first weighed, and dissolved to 10^−2 M by addition of dimethyl sulfoxide (DMSO). […] The plate dispensed with compound solutions was set in Flexstation (Molecular Devices, LLC.) until measurement.
Subsequently, 10 mL of assay buffer and 100 μL of probenecid solution (dissolved by addition of 1 mL of assay buffer to a 250 mM stock) were sufficiently mixed and dissolved in Fluo-4 NW dye mix. The medium of cells inoculated on the previous day was removed, the dissolved Fluo-4 NW dye mix was added in an amount of 90 μL/well, and a reaction was caused in the dark at 37° C. for 45 minutes. The cells after the reaction and chips for addition of the compound were set in Flexstation, and variation in fluorescence intensity over time after addition of the compound was measured [amount of added compound=10 μL (final concentration: 10^−5 M to 10^−12 M), excitation wavelength: 485 nm, measured wavelength: 525 nm, 1.5 sec×54 read]. A value was calculated by subtracting a base value during addition of DMSO from the maximum value of relative fluorescence unit, and analyzed. All the measurement data were analyzed with Prism 4 that was a data analysis tool.

Structure (SMILES)	EC50 [nM]
COc1ccc([C@@H]2COC[C@@H]2NC(=O)Nc2ccc(F)c(F)c2)cc1 (racemic) [Example 1-5, (±)-cis-1-(3,4-difluorophenyl)-3-[4-(4-methoxyphenyl)tetrahydrofuran-3-yl]urea]	12
COc1ccc([C@@H]2COC[C@@H]2NC(=O)Nc2ccc(C#N)cc2)cc1 (racemic) [Example 1-6, (±)-cis-1-(4-cyanophenyl)-3-[4-(4-methoxyphenyl)-tetrahydrofuran-3-yl]urea]	10
COc1ccc([C@@H]2COC[C@@H]2NC(=O)Nc2ccc(Cl)s2)cc1 (racemic) [Example 1-7, (±)-cis-1-(5-chlorothiophen-2-yl)-3-[4-(4-methoxyphenyl)-tetrahydrofuran-3-yl]urea]	5.2
COc1cc(F)c([C@@H]2COC[C@@H]2NC(=O)Nc2ccc(F)cc2)c(F)c1 (racemic) [Example 1-8, (±)-cis-1-[4-(2,6-difluoro-4-methoxyphenyl)-tetrahydrofuran-3-yl]-3-(4-fluorophenyl)urea]	3.78
COc1ccc([C@@H]2COC[C@H]2NC(=O)Nc2ccc(Cl)cc2)cc1 (racemic) [Example 1-9, (±)-trans-1-(4-chlorophenyl)-3-[4-(4-methoxyphenyl)tetrahydrofuran-3-yl]urea]	2.3
O=C(Nc1ccc(F)cc1)NC1COC[C@H]1c1ccc(Cl)cc1 (mixture of isomers) [Example 5-1, (±)-cis-1-[4-(4-Chlorophenyl)tetrahydrofuran-3-yl]-3-(4-fluorophenyl)urea]	14
COc1ccc(C2COC(=O)N2NC(=O)Nc2ccc(Cl)cc2)cc1 (racemic) [Example 5-4, (±)-1-(4-chlorophenyl)-3-[4-(4-methoxyphenyl)-2-oxooxazolidin-3-yl]urea]	2.6
COc1ccc([C@@H]2CC(=O)N[C@H]2NC(=O)Nc2ccc(F)cc2)cc1 (racemic) [Example 6-1, (±)-trans-1-(4-Fluorophenyl)-3-[3-(4-methoxyphenyl)-5-oxopyrrolidin-2-yl]urea]	5.6
COc1ccc([C@@H]2Cn3nnnc3[C@H]2NC(=O)Nc2ccc(F)cc2)cc1 (single isomer, unassigned) [Example 7-3, (−)-1-(4-fluorophenyl)-3-[(6R*,7S*)-6-(4-methoxyphenyl)-6,7-dihydro-5H-pyrrolo[1,2-d]tetrazol-7-yl]urea]	0.6
COc1cc(F)c([C@@H]2Cn3nnnc3[C@H]2NC(=O)Nc2ccc(F)cc2)c(F)c1 (single isomer, unassigned) [Example 7-4, (−)-1-[(6R*,7S*)-6-(2,6-difluoro-4-methoxyphenyl)-6,7-dihydro-5H-pyrrolo[1,2-d]tetrazol-7-yl]-3-(4-fluorophenyl)urea]	0.36
O=C(Nc1ccc(F)cc1)N[C@@H]1c2nnnn2C[C@H]1c1cc2c(cc1F)OCC2 (single isomer, unassigned) [Example 7-5, (−)-1-[(6R*,7S*)-6-(6-fluoro-2,3-dihydrobenzofuran-5-yl)-6,7-dihydro-5H-pyrrolo[1,2-d]tetrazol-7-yl]-3-(4-fluorophenyl)urea]	2.5
COc1cc(F)c([C@@H]2CN3CCCN=C3[C@H]2NC(=O)Nc2ccc(F)cc2)c(F)c1 (single isomer, unassigned) [Example 7-6, (−)-1-[(7R*,8S*)-7-(2,6-difluoro-4-methoxyphenyl)-2,3,4,6,7,8-hexahydropyrrolo[1,2-a]pyrimidin-8-yl]-3-(4-fluorophenyl)urea]	0.97

These reach a lower EC50. Values come first.

EC50 [nM]	Structure (SMILES)
0.29	COc1ccc(C2CS(=O)(=O)CC2NC(=O)Nc2ccc(Cl)cc2)cc1 (racemic) [Example 1-10, (±)-1-(4-chlorophenyl)-3-[4-(4-methoxyphenyl)-1,1-dioxideterrahydrothiophen-3-yl]urea]
0.29	COc1ccc([C@@H]2CN3C(=O)CON=C3[C@H]2NC(=O)Nc2ccc(F)cc2)cc1 (relative stereo) [Example 10-1, 1-(4-Fluorophenyl)-3-[(7R*,8S*)-7-(4-methoxyphenyl)-4-oxo-4,6,7,8-tetrahydro-3H-pyrrolo[2,1-c][1,2,4]oxadiazin-8-yl]urea]
0.25	COc1ccc([C@@H]2COC[C@@H]2NC(=O)Nc2ccc(Cl)cc2)cc1 (racemic) [Example 1-1, (±)-cis-1-(4-Chlorophenyl)-3-[4-(4-methoxyphenyl)tetrahydrofuran-3-yl]urea]
0.25	COc1cc(F)c([C@@H]2Cn3ccnc3[C@H]2NC(=O)Nc2ccc(F)cc2)c(F)c1 (single isomer, unassigned) [Example 7-2, (−)-1-[(6R*,7S*)-6-(2,6-difluoro-4-methoxyphenyl)-6,7-dihydro-5H-pyrrolo[1,2-a]imidazol-7-yl]-3-(4-fluorophenyl)urea]
0.11	COc1ccc([C@@H]2CCNC(=O)C2NC(=O)Nc2ccc(Cl)cc2)cc1 (mixture of isomers) [Example 1-11, (±)-trans-1-(4-chlorophenyl)-3-[4-(4-methoxyphenyl)-2-oxopiperidin-3-yl]urea]
0.05	COc1cc(F)c([C@@H]2Cn3c(C)nnc3C2NC(=O)Nc2ccc(F)cc2)c(F)c1 (single isomer, unassigned; (-)) [Example 7-1, (−)-1-[(6R*,7S*)-6-(2,6-Difluoro-4-methoxyphenyl)-3-methyl-6,7-dihydro-5H-pyrrolo[2,1-c][1,2,4]triazol-7-yl]-3-(4-fluorophenyl)urea]
0.03	COc1cc(F)c([C@@H]2CN3C(=O)CON=C3[C@H]2NC(=O)Nc2ccc(F)cc2)c(F)c1 (single isomer, unassigned) [Example 8-1, (−)-1-[(7R*,8S*)-7-(2,6-Difluoro-4-methoxyphenyl)-4-oxo-4,6,7,8-tetrahydro-3H-pyrrolo[2,1-c][1,2,4]oxadiazin-8-yl]-3-(4-fluorophenyl)urea]
0.03	COc1cc(F)c([C@@H]2CN3C(=O)CCN=C3[C@H]2NC(=O)Nc2ccc(F)cc2)c(F)c1 (single isomer, unassigned) [Example 9-1, (−)-1-[(7R*,8S*)-7-(2,6-Difluoro-4-methoxyphenyl)-4-oxo-2,3,4,6,7,8-hexahydropyrrolo[1,2-a]pyrimidin-8-yl]-3-(4-fluorophenyl)urea]
